Reference: ChEMBL document CHEMBL4014316, “Amphiphilic Guanidinocalixarenes Inhibit Lipopolysaccharide (LPS)- and Lectin-Stimulated Toll-like Receptor 4 (TLR4) Signaling” (J Med Chem, 2017)

Experiments:
Assay type in all cases: cell-based; call rule not given here
[1] = Cytotoxicity against HEK-Blue cells assessed as reduction in cell viability up to 10 uM measured after overnight incubation by MTT assay; conditions: human
Toll-like receptor 4 = Toll-like receptor 4 (Homo sapiens, UniProt O00206); assay: Activation of TLR4 signaling (unknown origin) expressed in HEK-Blue cells after 30 mins by secreted embryonic alkaline phosphatase reporter gene assay; conditions: 0.5 h
[2] = target: Toll-like receptor 4/MD-2/CD14 (Homo sapiens) (UniProt O00206+Q9Y6Y9+P08571); assay: (§1) Binding affinity to CD14/MD2 (unknown origin) expressed in HEK-Blue cells co-expressing TLR4 assessed as inhibition of LPS-induced TLR4 signaling preincubated for 30 mins followed by LPS stimulation measured after overnight incubation by secreted embryonic alkaline phosphatase reporter gene assay
[3] = target: Toll-like receptor 4/MD-2/CD14 (Homo sapiens, UniProt O00206+P08571+Q9Y6Y9); assay: as §1
Sequence of Toll-like receptor 4/MD-2/CD14 (O00206 whole entry): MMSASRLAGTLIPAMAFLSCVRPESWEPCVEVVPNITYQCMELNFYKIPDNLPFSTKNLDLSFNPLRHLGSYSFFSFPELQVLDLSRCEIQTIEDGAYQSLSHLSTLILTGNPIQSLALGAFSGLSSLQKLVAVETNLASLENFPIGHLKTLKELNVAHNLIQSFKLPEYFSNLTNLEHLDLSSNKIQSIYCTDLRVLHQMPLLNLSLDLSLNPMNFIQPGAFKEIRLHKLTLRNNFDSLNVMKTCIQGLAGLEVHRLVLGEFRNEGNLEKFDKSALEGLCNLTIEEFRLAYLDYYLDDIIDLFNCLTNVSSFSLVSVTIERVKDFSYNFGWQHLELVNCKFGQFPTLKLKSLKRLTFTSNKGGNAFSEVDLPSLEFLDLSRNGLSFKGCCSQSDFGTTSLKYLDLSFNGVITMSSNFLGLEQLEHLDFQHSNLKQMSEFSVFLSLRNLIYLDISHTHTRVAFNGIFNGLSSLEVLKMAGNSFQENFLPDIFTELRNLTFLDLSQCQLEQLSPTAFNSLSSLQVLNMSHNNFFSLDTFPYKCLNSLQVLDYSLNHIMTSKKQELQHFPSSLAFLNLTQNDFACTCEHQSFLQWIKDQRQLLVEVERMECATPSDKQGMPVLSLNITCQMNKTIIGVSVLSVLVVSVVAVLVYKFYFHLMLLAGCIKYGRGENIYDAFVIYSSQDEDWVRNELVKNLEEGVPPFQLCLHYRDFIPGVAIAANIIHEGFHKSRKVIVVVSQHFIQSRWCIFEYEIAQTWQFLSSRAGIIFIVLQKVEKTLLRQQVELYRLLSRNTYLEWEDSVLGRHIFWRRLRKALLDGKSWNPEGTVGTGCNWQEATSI
Sequence of Toll-like receptor 4/MD-2/CD14 (Q9Y6Y9 whole entry): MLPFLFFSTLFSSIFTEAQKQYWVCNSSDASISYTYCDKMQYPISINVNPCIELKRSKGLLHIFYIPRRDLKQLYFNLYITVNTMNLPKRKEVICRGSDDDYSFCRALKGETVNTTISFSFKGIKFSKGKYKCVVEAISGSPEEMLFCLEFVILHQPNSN
Sequence of Toll-like receptor 4/MD-2/CD14 (P08571 whole entry): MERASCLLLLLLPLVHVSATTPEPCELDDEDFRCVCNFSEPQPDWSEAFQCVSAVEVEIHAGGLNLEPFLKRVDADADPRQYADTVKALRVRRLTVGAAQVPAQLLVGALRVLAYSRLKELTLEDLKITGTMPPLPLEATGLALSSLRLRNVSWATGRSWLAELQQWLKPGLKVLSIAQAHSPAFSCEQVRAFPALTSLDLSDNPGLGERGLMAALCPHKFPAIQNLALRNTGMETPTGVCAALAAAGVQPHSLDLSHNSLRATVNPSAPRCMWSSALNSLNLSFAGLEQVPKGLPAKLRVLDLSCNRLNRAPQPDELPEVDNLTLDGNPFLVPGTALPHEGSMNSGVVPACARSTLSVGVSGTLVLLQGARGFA

Sequence of Toll-like receptor 4 (O00206 whole entry): as the sequence (O00206 whole entry) above

Activity (Toll-like receptor 4) | inhibition [2] | IC50 [3] | Compound | Activity [1]
Not Active | – | – | CCCOc1c2cc(NC(=N)N)cc1Cc1cc(NC(=N)N)cc(c1OCCC)Cc1cc(NC(=N)N)cc(c1OCCC)Cc1cc(NC(=N)N)cc(c1OCCC)C2.Cl.Cl.Cl.Cl | Non-Toxic
Not Active | – | – | CCCCCCOc1c2cc(NC(=N)N)cc1Cc1cc(NC(=N)N)cc(c1OCCCCCC)Cc1cc(NC(=N)N)cc(c1OCCCCCC)Cc1cc(NC(=N)N)cc(c1OCCCCCC)C2.Cl.Cl.Cl.Cl | Non-Toxic
Not Active | Dose-dependent effect | 10 µM | CC(C)(C)c1cc2c(OCCCNC(=N)N)c(c1)Cc1cc(C(C)(C)C)cc(c1OCCCNC(=N)N)Cc1cc(C(C)(C)C)cc(c1OCCCNC(=N)N)Cc1cc(C(C)(C)C)cc(c1OCCCNC(=N)N)C2.Cl.Cl.Cl.Cl | –
Not Active | Dose-dependent effect | 0.2 µM | CC(C)(C)c1cc2c(OCCCCNC(=N)N)c(c1)Cc1cc(C(C)(C)C)cc(c1OCCCCNC(=N)N)Cc1cc(C(C)(C)C)cc(c1OCCCCNC(=N)N)Cc1cc(C(C)(C)C)cc(c1OCCCCNC(=N)N)C2.Cl.Cl.Cl.Cl | –
